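Growth conditions: 96-well plates. Treatment: test compound, 48 hours, 5 concentrations. Analysis: linear interpolation between bracketing concentrations; unreached endpoints set to highest concentration. Here, GI50 denotes the concentration required for 50% inhibition of growth. TGI: concentration producing complete growth inhibition.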
What was measured:
Experiment in all cases: inhibition of tumour cell growth, NCI panel, 48 h
EKVX NSCLC = system: EKVX NSCLC
HCT-116 colon = system: HCT-116 colon
KM12 colon = system: KM12 colon
MDA-MB-435 = system: MDA-MB-435
MOLT-4 leukemia = system: MOLT-4 leukemia
NCI-H23 lung = system: NCI-H23 lung
NCI-H522 lung = system: NCI-H522 lung
OVCAR-4 ovarian = system: OVCAR-4 ovarian
SR leukemia = system: SR leukemia
SW-620 colon = system: SW-620 colon

## CCOC(=O)Nc1ccc2c(c1)c(CCCCCCc1nc3ccccc3c3ccc(NC(=O)OCC)cc13)nc1ccccc12
EKVX NSCLC
  TGI: > 100 µM
HCT-116 colon
  TGI: > 100 µM
KM12 colon
  TGI: > 100 µM
MDA-MB-435
  TGI: > 100 µM
MOLT-4 leukemia
  TGI: > 100 µM
NCI-H23 lung
  TGI: > 100 µM
NCI-H522 lung
  TGI: 60.5 µM
OVCAR-4 ovarian
  TGI: 74.2 µM
SR leukemia
  TGI: > 100 µM
SW-620 colon
  TGI: > 100 µM

## S=c1[nH]n2c(CCCCCCCCc3nnc4sc(=S)[nH]n34)nnc2s1
EKVX NSCLC
  TGI: > 100 µM
HCT-116 colon
  TGI: > 100 µM
KM12 colon
  TGI: > 100 µM
MDA-MB-435
  TGI: > 100 µM
MOLT-4 leukemia
  TGI: > 100 µM
NCI-H23 lung
  TGI: > 100 µM
NCI-H522 lung
  TGI: > 100 µM
OVCAR-4 ovarian
  TGI: > 100 µM
SR leukemia
  TGI: > 100 µM
SW-620 colon
  TGI: > 100 µM

## CC(C)=CCC/C(C)=C/COc1c2ccoc2cc2oc(=O)ccc12
EKVX NSCLC
  TGI: 72 µM
HCT-116 colon
  TGI: 85.4 µM
KM12 colon
  TGI: > 100 µM
MDA-MB-435
  TGI: > 100 µM
MOLT-4 leukemia
  TGI: 42.3 µM
NCI-H23 lung
  TGI: > 100 µM
NCI-H522 lung
  TGI: 74.8 µM
OVCAR-4 ovarian
  TGI: > 100 µM
SR leukemia
  TGI: 43.1 µM
SW-620 colon
  TGI: > 100 µM

## COc1cc(OC)cc(-c2n/c(=C\c3c(O)[nH]c4ccc(OC)cc34)cc3c2=Nc2ccccc2-3)c1
EKVX NSCLC
  GI50: 25.2 µM
  TGI: 80.9 µM
HCT-116 colon
  GI50: 1.67 µM
  TGI: 3.16 µM
KM12 colon
  GI50: 2.58 µM
  TGI: 6.21 µM
MDA-MB-435
  GI50: 4.12 µM
  TGI: 29.3 µM
MOLT-4 leukemia
  GI50: 2.56 µM
  TGI: 6.36 µM
NCI-H23 lung
  GI50: 2.78 µM
  TGI: 8.47 µM
NCI-H522 lung
  GI50: 17.8 µM
  TGI: 37.2 µM
OVCAR-4 ovarian
  GI50: 2.21 µM
  TGI: 5.21 µM
SR leukemia
  GI50: 2.76 µM
  TGI: 10.6 µM
SW-620 colon
  GI50: 3.92 µM
  TGI: 22.4 µM

## COC(=O)c1ccc(C)cc1CC1Cc2ccc(C)cc2C1=O (stereo not given)
EKVX NSCLC
  TGI: 36.6 µM
HCT-116 colon
  TGI: 19 µM
KM12 colon
  TGI: 22.1 µM
MDA-MB-435
  TGI: 4.03 µM
MOLT-4 leukemia
  TGI: 26.4 µM
NCI-H23 lung
  TGI: 74.7 µM
NCI-H522 lung
  TGI: 5.48 µM
OVCAR-4 ovarian
  TGI: 89.5 µM
SR leukemia
  TGI: 8.68 µM
SW-620 colon
  TGI: > 100 µM

## Cc1ccc(-c2nc(N/N=C/c3ccc(O)cc3)c3ccccc3n2)cc1
EKVX NSCLC
  TGI: 37.4 µM
HCT-116 colon
  TGI: 37.6 µM
KM12 colon
  TGI: 41.4 µM
MDA-MB-435
  TGI: 48.2 µM
MOLT-4 leukemia
  TGI: > 100 µM
NCI-H23 lung
  TGI: 33.8 µM
NCI-H522 lung
  TGI: 30.1 µM
OVCAR-4 ovarian
  TGI: 16.2 µM
SR leukemia
  TGI: > 100 µM
SW-620 colon
  TGI: > 100 µM

## Cn1ncc2c(Cl)ncnc21
EKVX NSCLC
  TGI: > 100 µM
HCT-116 colon
  TGI: > 100 µM
KM12 colon
  TGI: > 100 µM
MDA-MB-435
  TGI: > 100 µM
MOLT-4 leukemia
  TGI: > 100 µM
NCI-H23 lung
  TGI: > 100 µM
NCI-H522 lung
  TGI: > 100 µM
OVCAR-4 ovarian
  TGI: > 100 µM
SR leukemia
  TGI: > 100 µM
SW-620 colon
  TGI: > 100 µM

## CN(C)c1ccc(/C=C(\NC(=O)c2ccccc2)C2=NC(CCC(=O)O)C(=O)O2)cc1 (stereo not given)
EKVX NSCLC
  TGI: > 50 µM
HCT-116 colon
  TGI: > 50 µM
KM12 colon
  TGI: > 50 µM
MDA-MB-435
  TGI: > 50 µM
MOLT-4 leukemia
  TGI: > 50 µM
NCI-H23 lung
  TGI: > 50 µM
NCI-H522 lung
  TGI: 49.1 µM
OVCAR-4 ovarian
  TGI: > 50 µM
SR leukemia
  TGI: > 50 µM
SW-620 colon
  TGI: > 50 µM

## CC(=O)Oc1c(-c2ccccc2)sc2ccccc12
EKVX NSCLC
  TGI: 53 µM
HCT-116 colon
  TGI: 26.1 µM
KM12 colon
  TGI: 52.3 µM
MDA-MB-435
  TGI: 59 µM
MOLT-4 leukemia
  TGI: 40.7 µM
NCI-H23 lung
  TGI: 38.7 µM
NCI-H522 lung
  TGI: 51.3 µM
OVCAR-4 ovarian
  TGI: 73.4 µM
SR leukemia
  TGI: 29.4 µM
SW-620 colon
  TGI: > 100 µM

## C=C1C(O)C[C@H](OC(C)=O)[C@]2(C)C1C(OC(C)=O)[C@]1(C(C)(C)O)CC(O)C(C)=C1[C@@H](OC(=O)c1ccccc1)C2OC(C)=O (stereo not given in full)
EKVX NSCLC
  TGI: > 10 µM
HCT-116 colon
  TGI: > 10 µM
KM12 colon
  TGI: > 10 µM
MDA-MB-435
  TGI: > 10 µM
MOLT-4 leukemia
  TGI: > 10 µM
NCI-H23 lung
  TGI: > 10 µM
NCI-H522 lung
  TGI: > 10 µM
OVCAR-4 ovarian
  TGI: > 10 µM
SR leukemia
  TGI: > 10 µM
SW-620 colon
  TGI: > 10 µM

## CC(=O)Nc1ccc2[nH]c(C(=O)N3CC(CCl)c4c3cc([N+](=O)[O-])c3ccccc43)cc2c1 (stereo not given)
EKVX NSCLC
  TGI: > 89.4 µM
HCT-116 colon
  TGI: > 100 µM
KM12 colon
  TGI: > 71.7 µM
MDA-MB-435
  TGI: > 100 µM
MOLT-4 leukemia
  TGI: > 67.6 µM
NCI-H23 lung
  TGI: > 100 µM
NCI-H522 lung
  TGI: 6.61 µM
OVCAR-4 ovarian
  TGI: > 100 µM
SR leukemia
  TGI: 5.83 µM
SW-620 colon
  TGI: > 100 µM

## CC(C)(C)c1cc(OCc2nn3c(Cc4ccccc4)nnc3s2)c(Cl)cc1OCc1nn2c(Cc3ccccc3)nnc2s1
EKVX NSCLC
  TGI: > 100 µM
HCT-116 colon
  TGI: > 100 µM
KM12 colon
  TGI: > 100 µM
MDA-MB-435
  TGI: > 100 µM
MOLT-4 leukemia
  TGI: > 100 µM
NCI-H23 lung
  TGI: > 100 µM
NCI-H522 lung
  TGI: > 100 µM
OVCAR-4 ovarian
  TGI: > 100 µM
SR leukemia
  TGI: > 100 µM
SW-620 colon
  TGI: > 100 µM

## O=C(O)c1cnc(-n2[nH]c3c(c2=O)CCCC3)[nH]c1=O
EKVX NSCLC
  TGI: > 100 µM
HCT-116 colon
  TGI: > 100 µM
KM12 colon
  TGI: > 100 µM
MDA-MB-435
  TGI: > 100 µM
MOLT-4 leukemia
  TGI: > 100 µM
NCI-H23 lung
  TGI: > 100 µM
NCI-H522 lung
  TGI: > 100 µM
OVCAR-4 ovarian
  TGI: > 100 µM
SR leukemia
  TGI: > 100 µM
SW-620 colon
  TGI: > 100 µM
